For the assay, the system named is T-Skin models (reconstructed human skin). The following applies: maintained 24 hrs.

The structures appear in SMILES notation.

Procedure: T-Skin models were obtained from Episkin SA, France which is composed of reconstructed human skin. Each skin model consists of a dermal equivalent overlaid by a stratified, well-differentiated epidermis derived from normal human keratinocytes. Upon receiving the skin models, it was recovered by incubating in T-Skin culture medium overnight at 37° C. in a 5% CO2 incubator.
The genomic DNA (500 ng) from tissue samples were subjected to bisulfite conversion using the EZ DNA Methylation-Gold™ Kit (Zymo Research). The methylation levels were quantified using Infinium MethylationEPIC v2.0 Kit (Illumina) which can analyze over 850,000 methylation sites quantitatively across the genome at single-nucleotide resolution.
Quality check on samples was performed to keep probes that have a detection P-value <0.01 in one or more samples or have a mean detection P-value <0.05 in all samples. […]
Prior to differential methylation analysis, the probes with non-specific binding, cross reactive probes, probes affected by common SNPs, and probes annotated to the X, Y chromosomes were also filtered out. Beta-value and M-value of normalized and filtered samples were calculated using getBeta and getM function respectively, the samples were then subjected to further downstream analysis. […]

With `OO` [H2O2, Hydrogen peroxide], for the setting “high H2O2 (200 μM) for 2 hrs”, the “methylation status of probes vs cells without OS (FIG. 4A)” value was “large number of probes that are hypomethylated”. Also, the “methylation status of probes vs cells without OS (FIG. 3A)” value (low H2O2 (100 μM) for 2 hrs) is “large number of probes that are hypomethylated”.

Source of the values: patent US20250290142A1, “DETECTING OXIDATIVE STRESS IN CELL(S) USING EPIGENETIC MEANS” (Evonik Operations GmbH, priority 2022, published 2025).
